According to US20230233576A1, “ECLITASERTIB FOR USE IN TREATING CONDITIONS INVOLVING SYSTEMIC HYPERINFLAMMATORY RESPONSE” (priority 2020, published 2023):

Tested on: adult participants hospitalized for severe COVID-19
Experiment: Phase 1b severe COVID-19 study: adverse events and deaths
Type: in vivo, human
Excerpt: Safety evaluation was based on adverse events (Aes) including serious adverse events (SAEs) and adverse events of special interest (AESIs) (i.e., pregnancy, symptomatic overdose with IMP. Alanine aminotransferase [ALT] increase, and anemia), and treatment-emergent adverse events (TEAEs) leading to treatment discontinuation.
The primary focus of AE reporting was on treatment emergent adverse events (TEAEs). Treatment emergent adverse events were Aes that were not present at baseline or represented the exacerbation of a pre-existing condition during the on-treatment period (treatment-emergent period), defined as the time from the first administration of the IMP up to and including the day of last dose of study drug plus 5 days.
All adverse events were coded to a “preferred term (PT)”, “high-level term (HLT)”, “high-level group term (HLGT)”, and associated primary SOC using Medical Dictionary for Regulatory Activities (MedDRA) version 23.1.
The number and cumulative incidence rate of deaths [%] during the on-study period were computed by treatment group: number of deaths divided by the number of participants. Kaplan-Meier plot for time to death was presented by treatment group.

[1] = 600 mg (N = 47), Safety population
[2] = 600 mg (N = 47), Safety population, corresponds to worsening of COVID-19
[3] = 600 mg, Safety population (N = 47)
[4] = 600 mg, Study day 0, Safety population
[5] = 600 mg, Study day 13, Safety population
[6] = 600 mg, Study day 15, Safety population
[7] = 600 mg, Study day 27, Safety population
[8] = 600 mg, Study day 28, Safety population
[9] = 600 mg, Study day 29, Safety population
[10] = 600 mg, Study day 30, Safety population
[11] = 600 mg, Study day 31, Safety population
[12] = 600 mg, Study day 33, Safety population
[13] = 600 mg, Study day 42, Safety population
[14] = 600 mg, Study day 60, Safety population
[15] = post-treatment period, 600 mg (N = 47), safety population
[16] = pre-treatment emergent adverse events, 600 mg group (N = 47), safety population

CN1C(=O)[C@@H](NC(=O)c2nnc(Cc3ccccc3)[nH]2)COc2cccnc21 [RIPK1 Inhibitor, (S)-5-benzyl-N-(5-methyl-4-oxo-2,3,4,5-tetrahydropyrido[3,2-b][1,4]oxazepin-3-yl)-4H-1,2,4-triazole-3-carboxamide]
2 participants: deaths up to Day 28 (600 mg, Safety population (N = 47), on Day 11 and Day 15)
6: TEAE, SOC GASTROINTESTINAL DISORDERS: number of participants [1] | TEAE, SOC GENERAL DISORDERS AND ADMINISTRATION SITE CONDITIONS: number of participants [1] | TEAE, SOC INVESTIGATIONS: number of participants [1]
(6.4) %: TEAE, SOC METABOLISM AND NUTRITION DISORDERS: percentage of participants [1] | TEAE, SOC VASCULAR DISORDERS: percentage of participants [1]
(12.8) %: TEAE, SOC GASTROINTESTINAL DISORDERS: percentage of participants [1] | TEAE, SOC GENERAL DISORDERS AND ADMINISTRATION SITE CONDITIONS: percentage of participants [1] | TEAE, SOC INVESTIGATIONS: percentage of participants [1]
0 n (%): Participants with any post-treatment related to the compound [15] | Participants with any pre-treatment AE leading to death [16]
3: TEAE, SOC METABOLISM AND NUTRITION DISORDERS: number of participants [1] | TEAE, SOC VASCULAR DISORDERS: number of participants [1]
4: TEAE, SOC INFECTIONS AND INFESTATIONS: number of participants [1] | TEAE, SOC RESPIRATORY, THORACIC AND M[…]: number of participants [1] | TEAE, PT Condition aggravated: number of participants [2]
6 (12.8) n (%): Participants with any post-treatment AE [15]
(2.1) %: TEAE, PT Pulmonary embolism: percentage of participants [1] | TEAE, PT Pyrexia: percentage of participants [1] | TEAE, PT Respiratory disorder: percentage of participants [1] | TEAE, PT Venous thrombosis limb: percentage of participants [1] | TEAE, PT Vessel puncture site phlebitis: percentage of participants [1] | TEAE, SOC BLOOD AND LYMPHATIC SYSTEM DISORDERS: percentage of participants [1] | TEAE, SOC IMMUNE SYSTEM DISORDERS: percentage of participants [1] | TEAE, SOC INJURY, POISONING AND PROCEDURAL COMPLICATIONS: percentage of participants [1] | TEAE, SOC MUSCULOSKELETAL AND CONNECTIVE TISSUE DISORDERS: percentage of participants [1] | TEAE, SOC PSYCHIATRIC DISORDERS: percentage of participants [1]
generally safe and well tolerated: overall safety and tolerability as compared to placebo (daily doses over 15 days, severe COVID-19, with standard of care)
2 TEAEs: number of TEAEs considered as IMP-related by the Investigator [3]
1: TEAE, PT Pyrexia: number of participants [1] | TEAE, PT Respiratory disorder: number of participants [1] | TEAE, PT Venous thrombosis limb: number of participants [1] | TEAE, PT Vessel puncture site phlebitis: number of participants [1] | TEAE, SOC BLOOD AND LYMPHATIC SYSTEM DISORDERS: number of participants [1] | TEAE, SOC IMMUNE SYSTEM DISORDERS: number of participants [1] | TEAE, SOC INJURY, POISONING AND PROCEDURAL COMPLICATIONS: number of participants [1] | TEAE, SOC MUSCULOSKELETAL AND CONNECTIVE TISSUE DISORDERS: number of participants [1] | TEAE, SOC PSYCHIATRIC DISORDERS: number of participants [1] | Number of deaths [5] | Number of deaths [6]
1 participant: participants with post-treatment AE leading to death [3]
1 (2.1) n (%): Participants with any post-treatment AE leading to death [15] | Participants with any post-treatment SAE [15] | Participants with severe post-treatment AE [15] | Participants with any pre-treatment SAE [16] | Participants with severe pre-treatment AE [16]
0.02: Cumulative incidence rate of deaths [5]
0 n: participants with AESI, PT Anaemia [3] | participants with AESI, PT Transaminases increased [3] | participants with AESI, SOC BLOOD AND LYMPHATIC SYSTEM DISORDERS [3]
One: participants with post-treatment AESI of transaminase increase (600 mg, abnormal ALT and AST levels) | participants with PCSAs of elevated glucose levels considered as a TEAE of hyperglycemia (600 mg, from an abnormal baseline)
(8.5) %: TEAE, SOC INFECTIONS AND INFESTATIONS: percentage of participants [1] | TEAE, SOC RESPIRATORY, THORACIC AND M[…]: percentage of participants [1] | TEAE, PT Condition aggravated: percentage of participants [2]
4.3%: deaths up to Day 28 [3]
0: TEAE, PT Renal cyst: number of participants [1] | TEAE, PT Renal impairment: number of participants [1] | TEAE, PT Respiratory failure: number of participants [1] | TEAE, PT Subcutaneous emphysema: number of participants [1] | TEAE, PT Tachycardia paroxysmal: number of participants [1] | TEAE, PT Tracheitis: number of participants [1] | TEAE, PT Tracheobronchitis: number of participants [1] | TEAE, PT Transaminases increased: number of participants [1] | TEAE, PT Vomiting: number of participants [1] | TEAE, SOC CARDIAC DISORDERS: number of participants [1] | TEAE, SOC HEPATOBILIARY DISORDERS: number of participants [1] | TEAE, SOC NERVOUS SYSTEM DISORDERS: number of participants [1] | TEAE, SOC RENAL AND URINARY DISORDERS: number of participants [1] | TEAE, SOC REPRODUCTIVE SYSTEM AND BREAST DISORDERS: number of participants [1] | TEAE, SOC SKIN AND SUBCUTANEOUS TISSUE DISORDERS: number of participants [1] | Cumulative incidence rate of deaths [4] | Number of deaths [4] | Number of deaths [7] | Number of deaths [8] | Number of deaths [9] | Number of deaths [10] | Number of deaths [11] | Number of deaths [12] | Number of deaths [13] | Number of deaths [14]
8 serious TEAEs: number of serious TEAEs [3]
0.04: Cumulative incidence rate of deaths [6] | Cumulative incidence rate of deaths [7] | Cumulative incidence rate of deaths [8] | Cumulative incidence rate of deaths [9] | Cumulative incidence rate of deaths [10] | Cumulative incidence rate of deaths [11] | Cumulative incidence rate of deaths [12] | Cumulative incidence rate of deaths [13] | Cumulative incidence rate of deaths [14]
6 AESIs: number of AESIs [3]
5 TEAEs: number of TEAEs leading to treatment discontinuation [3]
2 (4.3) n (%): Participants with any pre-treatment AE [16]
